Experimental data from PubChem BioAssay (NCI).
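Five concentrations, 48 hours, 96-well plates. GI50: concentration for 50% inhibition of growth. TGI: concentration producing complete growth inhibition.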

What was measured:
Test in all cases: DTP human tumour cell line panel, 48 h
[1] = system: SNB-19 CNS
[2] = system: ACHN renal
[3] = system: PC-3 prostate
[4] = system: CCRF-CEM leukemia
[5] = system: SNB-75 CNS
[6] = system: SF-539 CNS
[7] = system: SW-620 colon
[8] = system: MCF7 breast
[9] = system: A498 renal

Structure (SMILES)	TGI [1] [µM]	TGI [2] [µM]	TGI [3] [µM]	TGI [4] [µM]	TGI [5] [µM]	TGI [6] [µM]	TGI [7] [µM]	TGI [8] [µM]	TGI [9] [µM]	GI50 [6] [µM]	GI50 [1] [µM]	GI50 [2] [µM]	GI50 [3] [µM]	GI50 [4] [µM]	GI50 [5] [µM]	GI50 [7] [µM]	GI50 [9] [µM]	GI50 [8] [µM]
CCOC(=O)c1nnsc1NN	> 100	> 100	> 100	> 100	> 100	> 100	> 100	> 100	–	–	–	–	–	–	–	–	–	–
COC1=C(C)C(=O)c2c(c(COC(N)=O)c3n2CC(OC(C)=O)C3OC(C)=O)C1=O (centres undefined)	2.09	1.03	0.402	13.8	1.09	0.165	0.166	1.23	1.34	–	–	–	–	–	–	–	–	–
C[C@H]1SC(c2ccc(Cl)cc2Cl)N(NC(=O)c2ccncc2)C1=O (some centres undefined)	> 100	90.7	29.7	> 100	> 100	–	–	> 100	78.4	–	–	–	–	–	–	–	–	–
COc1ccc(NC(=S)NC(=O)c2ccc3c(c2)Sc2ccccc2O3)c([N+](=O)[O-])c1	83.6	64.8	> 100	> 100	23.7	> 100	–	> 100	38.2	–	–	–	–	–	–	–	–	–
CC1(C)[C@H]2CC[C@@]13C(=O)N1C(=O)O[C@@H]([C@H]1Cl)C(Cl)(COCc1ccccc1)C(=O)OCCO[C@H]3C2 (some centres undefined)	> 100	> 100	> 100	> 100	> 100	> 100	> 100	> 100	> 100	–	–	–	–	–	–	–	–	–
C[C@]12CC[C@@H]3c4cc(I)c(O)cc4CC[C@H]3[C@@H]1CC[C@@H]2O	34.9	21	> 56.4	22.4	12.4	7.76	13.5	21.1	24.3	3.02	–	–	–	–	–	–	–	–
COC(=O)c1cc(C#N)[nH]c1-c1cc(Br)cs1	37.3	61.9	40.9	39.3	22.6	33.3	40.2	33.7	18.4	–	–	–	–	–	–	–	–	–
C\C(=N/N=C1/C(=C\N(C)C)C(=O)NC(=O)N1C)c1ccc(Cl)cc1	> 100	> 100	> 100	> 100	> 100	> 100	> 100	> 100	> 100	–	–	–	–	–	–	–	–	–
COC(=O)C1=Nc2c(C)nn(-c3ccccc3)c2N=C(c2ccccc2)C1	> 10	> 10	> 10	–	> 10	> 10	> 10	> 10	–	–	–	–	–	–	–	–	–	–
COc1ccc(CN2C3CC2CN(c2ccc(-c4cc(OCC(C)(C)O)cn5ncc(C#N)c45)cn2)C3)cn1	> 100	> 100	> 100	> 100	4.81	8.61	> 100	> 100	3.7	2.61	20.7	6.86	16.3	3.59	1.32	4.49	0.51	6.06
